How the values were obtained:
Assay in all cases: relative viability (nuclei count vs DMSO), 5 days (fraction); higher = more cells survive
[1] = compound: C1=CC2=C(C=C(C(=C2N=C1)O)N=NC3=CC4=C(C=C3)C=C(C=C4)S(=O)(=O)O)S(=O)(=O)O + Cc1cc(Nc2cc(N3CCN(C)CC3)nc(Sc3ccc(NC(=O)C4CC4)cc3)n2)n[nH]1 [Tozasertib] (partner 0.1 µM)
Outline: (§1)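 Dosing by pin tool came one day after lung cancer cell lines were seeded in 1536-well plates, using either one drug or a fixed anchor-drug dose plus five library-drug doses (not always all listed) in √10 steps. After 5 days, nuclei were counted on 4× images. Relative viability is treated-well nuclei count divided by vehicle-well nuclei count, and values are medians of duplicate plates.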

[2] = compound: C1=CC2=C(C=C(C(=C2N=C1)O)N=NC3=CC4=C(C=C3)C=C(C=C4)S(=O)(=O)O)S(=O)(=O)O + NC(=O)Nc1cc(-c2cccc(F)c2)sc1C(=O)N[C@H]1CCCNC1 [AZD7762] (partner 0.2 µM)
Outline: as §1

[3] = compound: C1=CC2=C(C=C(C(=C2N=C1)O)N=NC3=CC4=C(C=C3)C=C(C=C4)S(=O)(=O)O)S(=O)(=O)O + Nc1nc2[nH]cc(CCc3ccc(C(=O)N[C@@H](CCC(=O)O)C(=O)O)cc3)c2c(=O)[nH]1 [Pemetrexed] (partner 0.2 µM)
Outline: as §1

AT-7519 + Phenformin = compound: O=C(NC1CCNCC1)c1n[nH]cc1NC(=O)c1c(Cl)cccc1Cl [AT-7519] + N=C(N)NC(=N)NCCc1ccccc1 [Phenformin] (partner 250 µM)
Outline: as §1

LU99A
relative viability ([1]; first compound 0.08 µM): 0.289 | relative viability ([1]; first compound 0.253 µM): 0.267 | relative viability ([1]; first compound 0.8 µM): 0.272 | relative viability ([1]; first compound 2.53 µM): 0.323 | relative viability ([1]; first compound 8 µM): 0.273 | relative viability ([2]; first compound 0.08 µM): 0.433 | relative viability ([2]; first compound 0.253 µM): 0.376 | relative viability ([2]; first compound 0.8 µM): 0.421 | relative viability ([2]; first compound 2.53 µM): 0.35 | relative viability ([2]; first compound 8 µM): 0.37 | relative viability ([3]; first compound 0.08 µM): 0.161 | relative viability ([3]; first compound 0.253 µM): 0.401 | relative viability ([3]; first compound 0.8 µM): 0.183 | relative viability ([3]; first compound 2.53 µM): 0.181 | relative viability ([3]; first compound 8 µM): 0.19 | relative viability (AT-7519 + Phenformin; first compound 0.01 µM): 0.826 | relative viability (AT-7519 + Phenformin; first compound 0.03162 µM): 0.769 | relative viability (AT-7519 + Phenformin; first compound 0.3162 µM): 0.802 | relative viability (AT-7519 + Phenformin; first compound 1 µM): 0.724

LXF-289
relative viability ([1]; first compound 0.08 µM): 0.234 | relative viability ([1]; first compound 0.253 µM): 0.159 | relative viability ([1]; first compound 0.8 µM): 0.179 | relative viability ([1]; first compound 2.53 µM): 0.19 | relative viability ([1]; first compound 8 µM): 0.228 | relative viability ([2]; first compound 0.08 µM): 1.23 | relative viability ([2]; first compound 0.253 µM): 1.06 | relative viability ([2]; first compound 0.8 µM): 1.07 | relative viability ([2]; first compound 2.53 µM): 1.11 | relative viability ([2]; first compound 8 µM): 1.15 | relative viability ([3]; first compound 0.08 µM): 0.919 | relative viability ([3]; first compound 0.253 µM): 0.869 | relative viability ([3]; first compound 0.8 µM): 0.841 | relative viability ([3]; first compound 2.53 µM): 0.962 | relative viability ([3]; first compound 8 µM): 0.885 | relative viability (AT-7519 + Phenformin; first compound 0.01 µM): 0.574 | relative viability (AT-7519 + Phenformin; first compound 0.03162 µM): 0.524 | relative viability (AT-7519 + Phenformin; first compound 0.3162 µM): 0.489 | relative viability (AT-7519 + Phenformin; first compound 1 µM): 0.53

NCI-H23
relative viability ([1]; first compound 0.08 µM): 0.375 | relative viability ([1]; first compound 0.253 µM): 0.323 | relative viability ([1]; first compound 0.8 µM): 0.417 | relative viability ([1]; first compound 2.53 µM): 0.388 | relative viability ([1]; first compound 8 µM): 0.401 | relative viability ([2]; first compound 0.08 µM): 0.186 | relative viability ([2]; first compound 0.253 µM): 0.199 | relative viability ([2]; first compound 0.8 µM): 0.317 | relative viability ([2]; first compound 2.53 µM): 0.177 | relative viability ([2]; first compound 8 µM): 0.312 | relative viability ([3]; first compound 0.08 µM): 0.681 | relative viability ([3]; first compound 0.253 µM): 0.648 | relative viability ([3]; first compound 0.8 µM): 0.669 | relative viability ([3]; first compound 2.53 µM): 0.579 | relative viability ([3]; first compound 8 µM): 0.693 | relative viability (AT-7519 + Phenformin; first compound 0.01 µM): 0.632 | relative viability (AT-7519 + Phenformin; first compound 0.03162 µM): 0.794 | relative viability (AT-7519 + Phenformin; first compound 0.3162 µM): 0.779 | relative viability (AT-7519 + Phenformin; first compound 1 µM): 0.52

NCI-H322M
relative viability ([1]; first compound 0.08 µM): 0.541 | relative viability ([1]; first compound 0.253 µM): 0.468 | relative viability ([1]; first compound 0.8 µM): 0.433 | relative viability ([1]; first compound 2.53 µM): 0.496 | relative viability ([1]; first compound 8 µM): 0.47 | relative viability ([2]; first compound 0.08 µM): 0.576 | relative viability ([2]; first compound 0.253 µM): 0.625 | relative viability ([2]; first compound 0.8 µM): 0.522 | relative viability ([2]; first compound 2.53 µM): 0.598 | relative viability ([2]; first compound 8 µM): 0.71 | relative viability ([3]; first compound 0.08 µM): 0.663 | relative viability ([3]; first compound 0.253 µM): 0.663 | relative viability ([3]; first compound 0.8 µM): 0.608 | relative viability ([3]; first compound 2.53 µM): 0.587 | relative viability ([3]; first compound 8 µM): 0.669 | relative viability (AT-7519 + Phenformin; first compound 0.01 µM): 0.796 | relative viability (AT-7519 + Phenformin; first compound 0.03162 µM): 0.784 | relative viability (AT-7519 + Phenformin; first compound 0.3162 µM): 0.612 | relative viability (AT-7519 + Phenformin; first compound 1 µM): 0.448

NCI-H358
relative viability ([1]; first compound 0.08 µM): 0.126 | relative viability ([1]; first compound 0.253 µM): 0.0956 | relative viability ([1]; first compound 0.8 µM): 0.0998 | relative viability ([1]; first compound 2.53 µM): 0.103 | relative viability ([1]; first compound 8 µM): 0.102 | relative viability ([2]; first compound 0.08 µM): 0.375 | relative viability ([2]; first compound 0.253 µM): 0.667 | relative viability ([2]; first compound 0.8 µM): 0.426 | relative viability ([2]; first compound 2.53 µM): 0.544 | relative viability ([2]; first compound 8 µM): 0.518 | relative viability ([3]; first compound 0.08 µM): 0.159 | relative viability ([3]; first compound 0.253 µM): 0.16 | relative viability ([3]; first compound 0.8 µM): 0.162 | relative viability ([3]; first compound 2.53 µM): 0.163 | relative viability ([3]; first compound 8 µM): 0.171 | relative viability (AT-7519 + Phenformin; first compound 0.01 µM): 0.342 | relative viability (AT-7519 + Phenformin; first compound 0.03162 µM): 0.313 | relative viability (AT-7519 + Phenformin; first compound 0.3162 µM): 0.205 | relative viability (AT-7519 + Phenformin; first compound 1 µM): 0.087

NCI-H441
relative viability ([1]; first compound 0.08 µM): 0.636 | relative viability ([1]; first compound 0.253 µM): 0.685 | relative viability ([1]; first compound 0.8 µM): 0.644 | relative viability ([1]; first compound 2.53 µM): 0.712 | relative viability ([1]; first compound 8 µM): 0.605 | relative viability ([2]; first compound 0.08 µM): 1.18 | relative viability ([2]; first compound 0.253 µM): 1.08 | relative viability ([2]; first compound 0.8 µM): 0.946 | relative viability ([2]; first compound 2.53 µM): 1.13 | relative viability ([2]; first compound 8 µM): 1.13 | relative viability ([3]; first compound 0.08 µM): 0.251 | relative viability ([3]; first compound 0.253 µM): 0.27 | relative viability ([3]; first compound 0.8 µM): 0.246 | relative viability ([3]; first compound 2.53 µM): 0.26 | relative viability ([3]; first compound 8 µM): 0.297 | relative viability (AT-7519 + Phenformin; first compound 0.01 µM): 0.847 | relative viability (AT-7519 + Phenformin; first compound 0.03162 µM): 0.955 | relative viability (AT-7519 + Phenformin; first compound 0.3162 µM): 0.775 | relative viability (AT-7519 + Phenformin; first compound 1 µM): 0.515

NCI-H460
relative viability ([1]; first compound 0.08 µM): 0.627 | relative viability ([1]; first compound 0.253 µM): 0.381 | relative viability ([1]; first compound 0.8 µM): 0.559 | relative viability ([1]; first compound 2.53 µM): 0.543 | relative viability ([1]; first compound 8 µM): 0.4 | relative viability ([2]; first compound 0.08 µM): 0.612 | relative viability ([2]; first compound 0.253 µM): 0.629 | relative viability ([2]; first compound 0.8 µM): 0.605 | relative viability ([2]; first compound 2.53 µM): 0.637 | relative viability ([2]; first compound 8 µM): 0.53 | relative viability ([3]; first compound 0.08 µM): 0.0636 | relative viability ([3]; first compound 0.253 µM): 0.0585 | relative viability ([3]; first compound 0.8 µM): 0.066 | relative viability ([3]; first compound 2.53 µM): 0.0648 | relative viability ([3]; first compound 8 µM): 0.0698 | relative viability (AT-7519 + Phenformin; first compound 0.01 µM): 0.636 | relative viability (AT-7519 + Phenformin; first compound 0.03162 µM): 0.31 | relative viability (AT-7519 + Phenformin; first compound 0.3162 µM): 0.0379 | relative viability (AT-7519 + Phenformin; first compound 1 µM): 0.0177

NCI-H522
relative viability ([1]; first compound 0.08 µM): 0.583 | relative viability ([1]; first compound 0.253 µM): 0.556 | relative viability ([1]; first compound 0.8 µM): 0.609 | relative viability ([1]; first compound 2.53 µM): 0.539 | relative viability ([1]; first compound 8 µM): 0.631 | relative viability ([2]; first compound 0.08 µM): 0.783 | relative viability ([2]; first compound 0.253 µM): 0.932 | relative viability ([2]; first compound 0.8 µM): 0.971 | relative viability ([2]; first compound 2.53 µM): 0.787 | relative viability ([2]; first compound 8 µM): 0.714 | relative viability ([3]; first compound 0.08 µM): 0.949 | relative viability ([3]; first compound 0.253 µM): 1.03 | relative viability ([3]; first compound 0.8 µM): 1.04 | relative viability ([3]; first compound 2.53 µM): 0.971 | relative viability ([3]; first compound 8 µM): 1.09 | relative viability (AT-7519 + Phenformin; first compound 0.03162 µM): 0.681 | relative viability (AT-7519 + Phenformin; first compound 0.3162 µM): 0.662 | relative viability (AT-7519 + Phenformin; first compound 1 µM): 0.675

NCI-H596
relative viability ([1]; first compound 0.08 µM): 1.16 | relative viability ([1]; first compound 0.253 µM): 0.926 | relative viability ([1]; first compound 0.8 µM): 0.834 | relative viability ([1]; first compound 2.53 µM): 0.818 | relative viability ([1]; first compound 8 µM): 1.04 | relative viability ([2]; first compound 0.08 µM): 1.25 | relative viability ([2]; first compound 0.253 µM): 1.12 | relative viability ([2]; first compound 0.8 µM): 1.13 | relative viability ([2]; first compound 2.53 µM): 1.04 | relative viability ([2]; first compound 8 µM): 1.17 | relative viability ([3]; first compound 0.08 µM): 0.557 | relative viability ([3]; first compound 0.253 µM): 0.452 | relative viability ([3]; first compound 0.8 µM): 0.52 | relative viability ([3]; first compound 2.53 µM): 0.493 | relative viability ([3]; first compound 8 µM): 0.486 | relative viability (AT-7519 + Phenformin; first compound 0.01 µM): 0.732 | relative viability (AT-7519 + Phenformin; first compound 0.03162 µM): 0.653 | relative viability (AT-7519 + Phenformin; first compound 0.3162 µM): 0.642 | relative viability (AT-7519 + Phenformin; first compound 1 µM): 0.714

Source: the supplement of paper PMC10307832
